Results on 24 molecules are retold here after US11104675B2, “PTPN11 inhibitors” (NAVIRE PHARMA, INC., priority 2018, dated 2021).

Chain of PTPN11-E76K mutant enzyme (Q06124 whole entry E76K): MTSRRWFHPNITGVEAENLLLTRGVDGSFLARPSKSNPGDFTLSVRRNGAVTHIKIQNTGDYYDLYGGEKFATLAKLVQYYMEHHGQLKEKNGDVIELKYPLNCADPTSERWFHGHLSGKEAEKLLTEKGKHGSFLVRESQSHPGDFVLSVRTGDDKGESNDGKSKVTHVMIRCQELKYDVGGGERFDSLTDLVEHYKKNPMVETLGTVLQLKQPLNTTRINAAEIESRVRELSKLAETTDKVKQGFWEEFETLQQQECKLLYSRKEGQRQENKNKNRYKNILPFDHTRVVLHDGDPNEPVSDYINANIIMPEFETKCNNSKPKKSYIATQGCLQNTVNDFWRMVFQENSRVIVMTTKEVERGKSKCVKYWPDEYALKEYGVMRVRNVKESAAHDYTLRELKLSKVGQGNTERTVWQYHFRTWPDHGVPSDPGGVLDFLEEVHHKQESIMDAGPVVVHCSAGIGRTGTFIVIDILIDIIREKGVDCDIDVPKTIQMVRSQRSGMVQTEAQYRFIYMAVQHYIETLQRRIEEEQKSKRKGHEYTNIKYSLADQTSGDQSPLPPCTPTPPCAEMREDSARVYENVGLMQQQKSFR

For one assay, the system named is KYSE520 xenografts. Briefly: In vivo anti-tumor efficacy, KYSE520 xenograft model. The arrangement: species or system NSG (NOD scid gamma) mice. The note with it: NSG mice, subcutaneous KYSE520 xenografts, oral gavage once a day for 21 days.
In the case of `Cc1c(N2CCC3(CC2)CO[C@@H](C)[C@H]3N)nc(C)n(-c2cccc(Cl)c2Cl)c1=O` (atropisomer, axis not shown; (Ra)) [Example 10b, 6-((3S, 4S)-4-amino-3-methyl-2-oxa-8-azaspiro[4.5]decan-8-yl)-3-(Ra)-(2,3-dichlorophenyl)-2,5-dimethylpyrimidin-4(3H)-one], the tumor growth inhibition entry is recorded as “dose-dependent tumor growth inhibition”.

A further assay has as its target PTPN11-E76K mutant enzyme (Homo sapiens (Human), UniProt Q06124, E76K). Briefly: PTPN11 Enzymatic Assay (DiFMUP phosphatase activity). In kind it is biochemical. The following applies: full length PTPN11-E76K, DiFMUP substrate; read-out: IC50, inhibition of PTPN11-E76K mutant enzyme.
Take `Cc1nc(N2CCC3(CC2)CO[C@@H](C)[C@H]3N)cc(=O)n1-c1ccc(Oc2ccn(C)n2)c(Cl)c1Cl` (atropisomer, axis not shown; (Ra)) [Example 16b, 6-((3 S, 4S)-4-Amino-3-methyl-2-oxa-8-azaspiro[4.5]decan-8-yl)-3-(Ra)-(2,3-dichloro-4-((1-methyl-1H-pyrazol-3-yl)oxy)phenyl)-2-methylpyrimidin-4(3H)-one]: the IC50 stood at 92 nM.
With `Cc1nc(N2CCC3(CC2)CO[C@@H](C)[C@H]3N)cc(=O)n1-c1cccc(F)c1F` [Example 5, 6-[(3S,4S)-4-amino-3-methyl-2-oxa-8-azaspiro[4.5]decan-8-yl]-3-(2,3-difluorophenyl)-2-methyl-3,4-dihydropyrimidin-4-one], the 50% inhibitory concentration (IC50) came to 1170 nM.
`COc1cccc(-n2c(C)nc(N3CCC4(CC3)CO[C@@H](C)[C@H]4N)cc2=O)c1Cl` (atropisomer, axis not shown; (Sa)) [Example 7a, 6-((3S,4S)-4-amino-3-methyl-2-oxa-8-azaspiro[4.5]decan-8-yl)-3-(Sa)-(2-chloro-3-methoxyphenyl)-2-methylpyrimidin-4(3H)-one]: the IC50 is > 10000 nM.
As to `CNC(=O)c1ccc(Oc2ccc(-n3c(C)nc(N4CCC5(CC4)CO[C@@H](C)[C@H]5N)c(C)c3=O)c(Cl)c2Cl)cc1` (atropisomer, axis not shown; (Ra)) [Example 19b], the IC50 worked out at 12 nM.
`COc1cccc(-n2c(C)nc(N3CCC4(CC3)CO[C@@H](C)[C@H]4N)cc2=O)c1Cl` (atropisomer, axis not shown; (Ra)) [Example 7b, 6-((3S,4S)-4-amino-3-methyl-2-oxa-8-azaspiro[4.5]decan-8-yl)-3-(Ra)-(2-chloro-3-methoxyphenyl)-2-methylpyrimidin-4(3H)-one]: the concentration for half-maximal inhibition (IC50) turned out to be 153 nM.
As to `Cc1c(N2CCC3(CC2)CO[C@@H](C)[C@H]3N)nc(C)n(-c2ccc(Oc3cc[nH]n3)c(Cl)c2Cl)c1=O` (atropisomer, axis not shown; (Ra)) [Example 20b, 3-(4-((1H-pyrazol-3-yl)oxy)-(Ra)-2,3-dichlorophenyl)-6-((3S, 4S)-4-amino-3-methyl-2-oxa-8-azaspiro[4.5]decan-8-yl)-2,5-dimethylpyrimidin-4(3H)-one], the IC50 came out at 5 nM.
Same read-out and setting: for `Cc1nc(N2CCC3(CC2)CO[C@@H](C)[C@H]3N)c(Cl)c(=O)n1-c1ccnc(Cl)c1Cl` [Example 17, 6-((3S, 4S)-4-Amino-3-methyl-2-oxa-8-azaspiro[4.5]decan-8-yl)-5-chloro-3-(2,3-dichloropyridin-4-yl)-2-methylpyrimidin-4(3H)-one] the value was 618 nM; for `Cc1nc(N2CCC3(CC2)CO[C@@H](C)[C@H]3N)cc(=O)n1-c1ccc(Oc2ccccc2)c(Cl)c1Cl` (atropisomer, axis not shown; (Ra)) [Example 15b, 6-((3S, 4S)-4-amino-3-methyl-2-oxa-8-azaspiro[4.5]decan-8-yl)-3-(Ra)-(2,3-dichloro-4-phenoxyphenyl)-2-methylpyrimidin-4(3H)-one], 148 nM; for `CCC1(N)CCN(c2cc(=O)n(-c3cccc(Cl)c3Cl)c(C)n2)CC1` [Example 4, 6-(4-amino-4-ethylpiperidin-1-yl)-3-(2,3-dichlorophenyl)-2-methyl-3,4-dihydropyrimidin-4-one], 480 nM.
In the case of `Cc1cccc(-n2c(C)nc(N3CCC4(CC3)CO[C@@H](C)[C@H]4N)cc2=O)c1Cl` (atropisomer, axis not shown; (Sa)) [Example 13a, 6-((3S, 4S)-4-Amino-3-methyl-2-oxa-8-azaspiro[4.5]decan-8-yl)-3-(Sa)-(2-chloro-3-methylphenyl)-2-methylpyrimidin-4(3H)-one], the IC50 was 7500 nM.
For the molecule `Cc1c(N2CCC3(CC2)CO[C@@H](C)[C@H]3N)nc(C)n(-c2ccc(Oc3ccn(C)n3)c(Cl)c2Cl)c1=O` (atropisomer, axis not shown; (Sa)) [Example 18a, 6-((3S, 4S)-4-Amino-3-methyl-2-oxa-8-azaspiro[4.5]decan-8-yl)-3-(Sa)-(2,3-dichloro-4-((1-methyl-1H-pyrazol-3-yl)oxy)phenyl)-2,5-dimethylpyrimidin-4(3H)-one], the IC50 was 511 nM.
Regarding `Cc1nc(N2CCC3(CC2)CO[C@@H](C)[C@H]3N)cc(=O)n1-c1cccc(Cl)c1Br` [Example 8, 6-((3S,4S)-4-amino-3-methyl-2-oxa-8-azaspiro[4.5]decan-8-yl)-3-(2-bromo-3-chlorophenyl)-2-methylpyrimidin-4(3H)-one], the half-maximal inhibitory concentration (IC50) stood at 360 nM.
For the molecule `Cc1cccc(-n2c(C)nc(N3CCC4(CC3)CO[C@@H](C)[C@H]4N)cc2=O)c1Cl` (atropisomer, axis not shown; (Ra)) [Example 13b, 6-((3S, 4S)-4-amino-3-methyl-2-oxa-8-azaspiro[4.5]decan-8-yl)-3-(Ra)-(2-chloro-3-methylphenyl)-2-methylpyrimidin-4(3H)-one], the IC50 is 186 nM.
For `Cc1nc(N2CCC3(CC2)CO[C@@H](C)[C@H]3N)cc(=O)n1-c1ccc(Oc2ccccc2)c(Cl)c1Cl` (atropisomer, axis not shown; (Sa)) [Example 15a, 6-((3S, 4S)-4-Amino-3-methyl-2-oxa-8-azaspiro[4.5]decan-8-yl)-3-(Sa)-(2,3-dichloro-4-phenoxyphenyl)-2-methylpyrimidin-4(3H)-one], the IC50 is > 1000 nM.
Regarding `Cc1c(N2CCC3(CC2)CO[C@@H](C)[C@H]3N)nc(C)n(-c2cccc(Cl)c2Cl)c1=O` (atropisomer, axis not shown; (Sa)) [Example 10a, 6-((3S, 4S)-4-Amino-3-methyl-2-oxa-8-azaspiro[4.5]decan-8-yl)-3-(Sa)-(2,3-dichlorophenyl)-2,5-dimethylpyrimidin-4(3H)-one], the IC50 was 2580 nM.
With `Cc1nc(N2CCC3(CC2)CO[C@@H](C)[C@H]3N)cc(=O)n1-c1ccc(Oc2ccn(C)n2)c(Cl)c1Cl` (atropisomer, axis not shown; (Sa)) [Example 16a, 6-((3 S, 4S)-4-Amino-3-methyl-2-oxa-8-azaspiro[4.5]decan-8-yl)-3-(Sa)-(2,3-dichloro-4-((1-methyl-1H-pyrazol-3-yl)oxy)phenyl)-2-methylpyrimidin-4(3H)-one], the IC50 was determined as 9550 nM.
Consider `Cc1c(N2CCC3(CC2)CO[C@@H](C)[C@H]3N)nc(C)n(-c2ccc(Oc3ccn(C)n3)c(Cl)c2Cl)c1=O` (atropisomer, axis not shown; (Ra)) [Example 18b, 6-((3 S, 4 S)-4-Amino-3-methyl-2-oxa-8-azaspiro[4.5]decan-8-yl)-3-(Ra)-(2,3-dichloro-4-((1-methyl-1H-pyrazol-3-yl)oxy)phenyl)-2,5-dimethylpyrimidin-4(3H)-one], for which the IC50 worked out at 3 nM.
With `Cc1c(N2CCC3(CC2)CO[C@@H](C)[C@H]3N)nc(C)n(-c2cccc(Cl)c2Cl)c1=O` (atropisomer, axis not shown; (Ra)) [Example 10b, 6-((3S, 4S)-4-amino-3-methyl-2-oxa-8-azaspiro[4.5]decan-8-yl)-3-(Ra)-(2,3-dichlorophenyl)-2,5-dimethylpyrimidin-4(3H)-one], the IC50 came to 28 nM.
As for `Cc1nc(N2CCC3(CC2)CO[C@@H](C)[C@H]3N)c(Br)c(=O)n1-c1cccc(Cl)c1Cl` (atropisomer, axis not shown; (Ra)) [Example 12b, 6-((3S, 4S)-4-amino-3-methyl-2-oxa-8-azaspiro[4.5]decan-8-yl)-5-bromo-3-(Ra)-(2,3-dichlorophenyl)-2-methylpyrimidin-4(3H)-one], the IC50 came out at 20 nM.
Take `Cc1nc(N2CCC3(CC2)CO[C@@H](C)[C@H]3N)cc(=O)n1-c1cccc(C(F)(F)F)c1Cl` (atropisomer, axis not shown; (Sa)) [Example 14a, 6-((3S, 4S)-4-Amino-3-methyl-2-oxa-8-azaspiro[4.5]decan-8-yl)-3-(Sa)-(2-chloro-3-(trifluoromethyl)phenyl)-2-methylpyrimidin-4(3H)-one]: the IC50 was > 1000 nM.
Consider `Cc1nc(N2CCC3(CC2)CO[C@@H](C)[C@H]3N)cc(=O)n1-c1cccc(C(F)(F)F)c1Cl` (atropisomer, axis not shown; (Ra)) [Example 14b, 6-((3 S, 4S)-4-Amino-3-methyl-2-oxa-8-azaspiro[4.5]decan-8-yl)-3-(Ra)-(2-chloro-3-(trifluoromethyl)phenyl)-2-methylpyrimidin-4(3H)-one], for which the IC50 amounted to 703 nM.
In the case of `Cc1nc(N2CCC(C)(CN)CC2)cc(=O)n1-c1cccc(Cl)c1Cl` [Example 3, 6-[4-(aminomethyl)-4-methylpiperidin-1-yl]-3-(2,3-dichlorophenyl)-2-methyl-3,4-dihydropyrimidin-4-one], the IC50 came to 310 nM.
Same read-out and setting: for `Cc1nc(N2CCC3(CC2)CO[C@@H](C)[C@H]3N)cc(=O)n1-c1ccc(Br)c(Cl)c1Cl` [Example 6, 6-((3S,4S)-4-amino-3-methyl-2-oxa-8-azaspiro[4.5]decan-8-yl)-3-(4-bromo-2,3-dichlorophenyl)-2-methylpyrimidin-4(3H)-one] the value was 203 nM; for `Cc1nc(N2CCC3(CC2)CO[C@@H](C)[C@H]3N)c(Br)c(=O)n1-c1cccc(Cl)c1Cl` (atropisomer, axis not shown; (Sa)) [Example 12a, 6-((3S, 4S)-4-Amino-3-methyl-2-oxa-8-azaspiro[4.5]decan-8-yl)-5-bromo-3-(Sa)-(2,3-dichlorophenyl)-2-methylpyrimidin-4(3H)-one], 3460 nM.
